Laboratory results from patent US6750228B1, “Aromatic sulfone hydroxamic acid metalloprotease inhibitor” (priority 1997, dated 2004).
pIC50: −log10 of the molar value. Where two headings read alike, the source gives them in different places.

What was measured:
Assay in all cases: biochemical
[1] = target: T1, MMP-2 (Homo sapiens, UniProt P08253); conditions: for pIC50: read-out: MMP-2 IC50
T1 construct: made in house; provided by Dr. Gregory Goldberg, Washington University
T1 sequence (P08253 110-660): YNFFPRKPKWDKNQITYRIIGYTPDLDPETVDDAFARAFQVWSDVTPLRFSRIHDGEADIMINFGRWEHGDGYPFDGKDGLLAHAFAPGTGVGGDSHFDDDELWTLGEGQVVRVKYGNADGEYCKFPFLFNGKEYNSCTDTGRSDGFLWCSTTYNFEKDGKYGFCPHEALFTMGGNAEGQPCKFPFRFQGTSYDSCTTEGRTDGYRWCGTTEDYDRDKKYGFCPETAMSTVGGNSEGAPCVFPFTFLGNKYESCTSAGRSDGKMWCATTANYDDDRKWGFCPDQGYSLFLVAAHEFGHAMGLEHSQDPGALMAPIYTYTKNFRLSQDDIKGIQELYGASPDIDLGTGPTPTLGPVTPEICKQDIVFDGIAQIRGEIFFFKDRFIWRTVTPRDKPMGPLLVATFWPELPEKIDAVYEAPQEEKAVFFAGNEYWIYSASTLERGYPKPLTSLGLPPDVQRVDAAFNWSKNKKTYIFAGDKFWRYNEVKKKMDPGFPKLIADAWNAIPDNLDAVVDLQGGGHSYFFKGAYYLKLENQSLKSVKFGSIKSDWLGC
Procedure, shortened: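 APMA- or trypsin-activated enzymes were preincubated with inhibitor for 5 min at room temperature, then the fluorogenic substrate MCA-Pro-Leu-Gly-Leu-Dpa-Ala-Arg-NH2 was added to a final 4 μM.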

[2] = target: T2, MMP-13 (Homo sapiens, UniProt P45452); conditions: read-out: MMP-13 IC50
T2 construct: made in house; host or cells: baculovirus / insect cells
Procedure, shortened: (§1)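 Assay buffer 100 mM Tris-HCl, 100 mM NaCl, 10 mM CaCl2, pH 7.5. Activated MMP + inhibitor, 5 min RT; then methoxycoumarin peptide substrate, 4 μM final. Readout fluorescence; IC50 calculated.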

[3] = target: T3, MMP-1 (Homo sapiens, UniProt P03956); conditions: read-out: MMP-1 IC50
T3 construct: made in house; host or cells: transfected HT-1080 cells (provided by Dr. Harold Welgus, Washington University)
T3 sequence (P03956 100-469): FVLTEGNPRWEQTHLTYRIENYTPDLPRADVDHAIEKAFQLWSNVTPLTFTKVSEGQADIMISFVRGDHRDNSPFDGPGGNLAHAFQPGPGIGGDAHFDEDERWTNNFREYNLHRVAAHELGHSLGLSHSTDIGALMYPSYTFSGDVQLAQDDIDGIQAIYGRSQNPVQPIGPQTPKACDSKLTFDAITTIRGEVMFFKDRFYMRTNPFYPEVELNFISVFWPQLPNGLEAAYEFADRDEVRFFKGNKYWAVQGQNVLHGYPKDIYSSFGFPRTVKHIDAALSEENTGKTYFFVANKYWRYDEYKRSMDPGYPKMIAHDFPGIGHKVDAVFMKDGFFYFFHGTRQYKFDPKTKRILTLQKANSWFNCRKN
Procedure, shortened: as §1

[4] = recombinant human MMP-2, MCA peptide substrate 4 μM, pH 7.5, room temperature
[5] = recombinant human MMP-13, MCA peptide substrate 4 μM, pH 7.5, room temperature
[6] = recombinant human MMP-1, MCA peptide substrate 4 μM, pH 7.5, room temperature

pIC50 [1, 4] | pIC50 [2, 5] | pIC50 [3, 6] | SMILES | pIC50 [1] | pIC50 [2] | pIC50 [3] | IC50 ([1]; MMP-2 IC50 (nM))
9.70 | 9.30 | < 5.00 | O=C(NO)C1(S(=O)(=O)c2ccc(Oc3ccc(OC(F)(F)F)cc3)cc2)CCS(=O)(=O)CC1 [Example 157] | – | – | – | –
5.43 | 7.86 | < 5.00 | CN(C(=O)C1CCN(c2ccc(S(=O)(=O)C3(C(=O)NO)CCOCC3)cc2)CC1)c1ccccc1 [Example 60] | – | – | – | –
6.89 | 7.30 | < 5.00 | O=C(NO)C1(S(=O)(=O)c2ccc(N3CCCCC3)cc2)CCOCC1 [Example 209] | – | – | – | –
– | – | – | COc1ccccc1C1CCN(c2ccc(S(=O)(=O)C3(C(=O)NO)CCSCC3)cc2)CC1 [Example 153] | 5.30 | 7.30 | < 5.00 | –
– | – | – | COc1ccccc1C1CCN(c2ccc(S(=O)(=O)C3(C(=O)NO)CCOCC3)cc2)CC1 [Example 79] | – | 7.70 | < 5.00 | 2000 nM
6.96 | 7.75 | < 5.00 | O=C(NO)C1(S(=O)(=O)c2ccc(OC3CCC(OCc4ccccc4Cl)C3)cc2)CCOCC1 (stereo not drawn) [Example 688] | – | – | – | –
9.52 | 8.40 | < 5.00 | COCCN(CCCCC(=O)N1CCC(C(=O)NO)(S(=O)(=O)c2ccc(Oc3ccc(C(F)(F)F)cc3)cc2)CC1)CCOC [Example 342] | – | – | – | –
5.57 | 7.10 | < 5.00 | CCCNC(=O)C1CCN(c2ccc(S(=O)(=O)C3(C(=O)NO)CCOCC3)cc2)CC1 [Example 57] | – | – | – | –
6.63 | 7.94 | < 5.00 | O=C(NO)C1(S(=O)(=O)c2ccc(N3CCC(OCc4cccc(Cl)c4)CC3)cc2)CCOCC1 [Example 573] | – | – | – | –
6.10 | 7.70 | < 5.00 | CC(=O)N1CCC(C(=O)NO)(S(=O)(=O)c2ccc(N3CCC(C(=O)Nc4ccccc4)CC3)cc2)CC1 [Example 245, 1-Acetyl-N-hydroxy-4-[[4-[4-[(phenylamino)carbonyl]-1-piperidinyl]phenyl]sulfonyl]-4-piperidinecarboxamide] | – | – | – | –
> 10.00 | 9.52 | < 5.00 | O=C(c1ccccc1)N1CCC(C(=O)NO)(S(=O)(=O)c2ccc(Oc3ccc(OC(F)(F)F)cc3)cc2)CC1 [Example 91] | – | – | – | –
6.60 | 8.40 | < 5.00 | O=C(NO)C1(S(=O)(=O)c2ccc(N3CCC(OCc4ccc(Cl)c(Cl)c4)CC3)cc2)CCOCC1 [Example 176] | – | – | – | –
8.96 | 8.66 | < 5.00 | CCCCc1ccc(OC2CCN(c3ccc(S(=O)(=O)C4(C(=O)NO)CCOCC4)cc3)CC2)cc1 [Example 642] | – | – | – | –
6.96 | 7.59 | < 5.00 | COc1ccc(COC2CCC(Oc3ccc(S(=O)(=O)C4(C(=O)NO)CCOCC4)cc3)C2)cc1 (stereo not drawn) [Example 648] | – | – | – | –
6.68 | 7.80 | < 5.00 | O=C(NO)C1(S(=O)(=O)c2ccc(N3CCCC(COCc4cccc(C(F)(F)F)c4)C3)cc2)CCOCC1 (stereo not drawn) [Example 507] | – | – | – | –
6.15 | 7.77 | < 5.00 | COc1ccc(S(=O)(=O)N2CCCN(c3ccc(S(=O)(=O)C4(C(=O)NO)CCOCC4)cc3)CC2)cc1 [Example 698] | – | – | – | –
> 10.00 | 8.57 | < 5.00 | O=C(NO)C1(S(=O)(=O)c2ccc(Oc3ccc(OC(F)(F)F)cc3)cc2)CCN(S(=O)(=O)C(F)(F)F)CC1 [Example 197] | – | – | – | –
– | – | – | CC1CC(C)CN(C(=O)C2CCN(c3ccc(S(=O)(=O)C4(C(=O)NO)CCSCC4)cc3)CC2)C1 (stereo not drawn) [Example 162] | 5.15 | 7.56 | < 5.00 | –
7.63 | 8.51 | < 5.00 | COc1cccc(COC2CCC(Oc3ccc(S(=O)(=O)C4(C(=O)NO)CCOCC4)cc3)C2)c1 (stereo not drawn) [Example 694] | – | – | – | –
7.18 | 8.35 | < 5.00 | O=C(NO)C1(S(=O)(=O)c2ccc(N3CCC(OCc4ccc(F)cc4F)CC3)cc2)CCOCC1 [Example 558] | – | – | – | –
7.97 | 7.49 | < 5.00 | O=C(NO)C1(S(=O)(=O)c2ccc(N3CCC(Oc4ccc5c(c4)CCCC5)CC3)cc2)CCOCC1 [Example 483] | – | – | – | –

SMILES | pIC50 [1, 4] | pIC50 [2, 5] | pIC50 [3, 6] | pIC50 [1] | pIC50 [2] | pIC50 [3] | IC50 ([1]; MMP-2 IC50 (nM))
CC1CC(C)CN(C(=O)C2CCN(c3ccc(S(=O)(=O)C4(C(=O)NO)CCN(C(=O)CNCCN(C)C)CC4)cc3)CC2)C1 (stereo not drawn) [Example 289] | < 5.00 | 7.30 | < 5.00 | – | – | – | –
O=C(NO)C1(S(=O)(=O)c2ccc(N3CCC(OCc4ccc(F)cc4C(F)(F)F)CC3)cc2)CCN(C2CC2)CC1 [Example 414] | 5.82 | 7.30 | < 5.00 | – | – | – | –
O=C(c1ccc(F)cc1)C1CCN(c2ccc(S(=O)(=O)C3(C(=O)NO)CCOCC3)cc2)CC1 [Example 654] | 7.46 | 8.49 | < 5.00 | – | – | – | –
CC(C)(Cl)CC(=O)C1CCN(c2ccc(S(=O)(=O)C3(C(=O)NO)CCOCC3)cc2)CC1 [Example 760] | 7.60 | 8.22 | < 5.00 | – | – | – | –
O=C(Nc1ccccc1C(F)(F)F)N1CCC(C(=O)NO)(S(=O)(=O)c2ccc(Oc3ccc(OC(F)(F)F)cc3)cc2)CC1 [Example 364] | 9.70 | 9.00 | < 5.00 | – | – | – | –
O=C(NO)C1(S(=O)(=O)c2ccc(Oc3ccc(OC(F)(F)F)cc3)cc2)CCN(c2cccnc2)CC1 [Example 392] | 10.00 | 9.70 | < 5.00 | – | – | – | –
CCCCCC(=O)N1CCN(c2ccc(S(=O)(=O)C3(C(=O)NO)CCOCC3)cc2)CC1 [Example 592] | 6.16 | 7.24 | < 5.00 | – | – | – | –
COc1ccccc1NC(=O)N1CCC(C(=O)NO)(S(=O)(=O)c2ccc(Oc3ccc(OC(F)(F)F)cc3)cc2)CC1 [Example 357] | 10.00 | 9.52 | < 5.00 | – | – | – | –
CC1CC(C)CN(C(=O)C2CCN(c3ccc(S(=O)(=O)C4(C(=O)NO)CCN(C(C)C)CC4)cc3)CC2)C1 (stereo not drawn) [Example 458] | 5.68 | 6.68 | < 5.00 | – | – | – | –
O=C(c1ccc(OC(F)(F)F)cc1)C1CCN(c2ccc(S(=O)(=O)C3(C(=O)NO)CCOCC3)cc2)CC1 [Example 726] | 6.60 | 7.80 | < 5.00 | – | – | – | –
C=Cc1ccc(C(=O)C2CCN(c3ccc(S(=O)(=O)C4(C(=O)NO)CCOCC4)cc3)CC2)cc1 [Example 787] | 6.76 | 8.92 | < 5.00 | – | – | – | –
CC1CC(C)CN(C(=O)C2CCN(c3ccc(S(=O)(=O)C4(C(=O)NO)CCN(C(=O)CN5CCCC5=O)CC4)cc3)CC2)C1 (stereo not drawn) [Example 314] | < 5.00 | 7.19 | < 5.00 | – | – | – | –
O=C(Nc1ccc(F)cc1F)N1CCC(C(=O)NO)(S(=O)(=O)c2ccc(Oc3ccc(OC(F)(F)F)cc3)cc2)CC1 [Example 363] | 9.70 | 9.40 | 5.06 | – | – | – | –
O=C(c1ccc(C(F)(F)F)c(F)c1)C1CCN(c2ccc(S(=O)(=O)C3(C(=O)NO)CCOCC3)cc2)CC1 [Example 738] | 6.57 | 7.66 | < 5.00 | – | – | – | –
CN1CCCN(C2CCN(c3ccc(S(=O)(=O)C4(C(=O)NO)CCOCC4)cc3)CC2)CC1 [Example 807] | 5.85 | 6.70 | < 5.00 | – | – | – | –
CC1CC(C)CN(C(=O)C2CCN(c3ccc(S(=O)(=O)C4(C(=O)NO)CCN(C(=O)CN5CCCC5)CC4)cc3)CC2)C1 (stereo not drawn) [Example 298] | < 5.00 | 7.40 | < 5.00 | – | – | – | –
